Measured values from paper PMC9645344, “Serotonin-releasing agents with reduced off-target effects” (Molecular Psychiatry, 2022).

Legend:
extracellular DA = test system: extracellular DA; set-up: method as in PMID 23178523; settings: racemic; cited from earlier work
human DAT = molecular target: T1, human DAT (Homo sapiens, UniProt Q01959); test: DAT uptake inhibition assay in HEK293 cells ([3H]MPP+); type: cell-based
T1 construct: expressed in transfected cells
Procedure: Human embryonic kidney 293 (HEK293) cells stably expressing the human isoforms of either DAT or SERT were maintained in Dulbecco’s Modified Eagle Medium (DMEM), supplemented with 10% fetal calf serum at a subconfluent state in humidified atmosphere (5% CO2, 37 °C).
Uptake inhibition assays were performed as described earlier. Briefly, HEK293 cells stably expressing human SERT or DAT were seeded onto poly- D-lysine (PDL) coated 96-well plates (40,000 cells well^−1) the day before an experiment. Prior to the uptake inhibition assay, DMEM was replaced with Krebs-HEPES buffer (KHB, 25 mM HEPES, 120 mM NaCl, 5 mM KCl, 1.2 mM CaCl2, 1.2 mM MgSO4, and 5 mM D-glucose, pH 7.3) and the cells were preincubated with test drugs for 5 min at room temperature. Uptake assays were initiated by adding 20 nM [^3H]MPP^+ to DAT cells or 100 nM [^3H]5-HT to SERT cells. After 180 s (DAT) or 60 s (SERT), the tritiated substrate was removed by aspiration. Cells were washed once with ice-cold KHB, then lysed in 1% sodium dodecyl sulfate (SDS) and subjected to liquid scintillation counting to quantify tritium accumulated in each sample. Non-specific uptake was determined in the presence of mazindol (1 µM) for DAT or paroxetine (1 µM) for SERT and subtracted throughout.

T1 sequence (Q01959 whole entry): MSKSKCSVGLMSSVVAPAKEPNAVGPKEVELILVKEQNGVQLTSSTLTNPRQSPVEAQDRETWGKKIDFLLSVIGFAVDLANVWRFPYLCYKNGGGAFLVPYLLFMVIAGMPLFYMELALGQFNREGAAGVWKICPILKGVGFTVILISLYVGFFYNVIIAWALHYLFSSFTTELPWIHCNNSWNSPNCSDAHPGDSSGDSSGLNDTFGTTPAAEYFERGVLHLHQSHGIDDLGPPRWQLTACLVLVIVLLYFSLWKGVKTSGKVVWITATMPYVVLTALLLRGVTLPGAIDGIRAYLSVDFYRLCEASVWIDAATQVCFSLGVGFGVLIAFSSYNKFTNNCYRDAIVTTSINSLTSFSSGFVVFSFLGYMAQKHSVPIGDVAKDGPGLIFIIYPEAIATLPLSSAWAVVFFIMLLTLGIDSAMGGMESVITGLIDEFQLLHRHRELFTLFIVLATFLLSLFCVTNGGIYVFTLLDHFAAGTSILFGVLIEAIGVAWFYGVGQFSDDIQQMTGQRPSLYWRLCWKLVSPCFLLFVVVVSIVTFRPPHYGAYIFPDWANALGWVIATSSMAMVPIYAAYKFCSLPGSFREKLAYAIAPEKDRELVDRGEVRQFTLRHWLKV

CNC(C)C(=O)c1ccc(C(F)(F)F)cc1 (centres unmarked) [4-TFMMC, 4-trifluoromethyl-N-methylcathinone]
extracellular DA (extracellular DA): did not affect extracellular DA | IC50 (human DAT): > 100 µM
